Measured values taken from paper PMC12048553, “Labels as a feature: Network homophily for systematically annotating human GPCR drug-target interactions” (Nature Communications, 2025).

Biological target: CHRM3 (Homo sapiens, UniProt P20309)
Experiment: yeast-expressed receptor NanoLuc screen at […], |Z-score| […]
Format: cell-based

CHRM3, sequence (P20309 whole entry): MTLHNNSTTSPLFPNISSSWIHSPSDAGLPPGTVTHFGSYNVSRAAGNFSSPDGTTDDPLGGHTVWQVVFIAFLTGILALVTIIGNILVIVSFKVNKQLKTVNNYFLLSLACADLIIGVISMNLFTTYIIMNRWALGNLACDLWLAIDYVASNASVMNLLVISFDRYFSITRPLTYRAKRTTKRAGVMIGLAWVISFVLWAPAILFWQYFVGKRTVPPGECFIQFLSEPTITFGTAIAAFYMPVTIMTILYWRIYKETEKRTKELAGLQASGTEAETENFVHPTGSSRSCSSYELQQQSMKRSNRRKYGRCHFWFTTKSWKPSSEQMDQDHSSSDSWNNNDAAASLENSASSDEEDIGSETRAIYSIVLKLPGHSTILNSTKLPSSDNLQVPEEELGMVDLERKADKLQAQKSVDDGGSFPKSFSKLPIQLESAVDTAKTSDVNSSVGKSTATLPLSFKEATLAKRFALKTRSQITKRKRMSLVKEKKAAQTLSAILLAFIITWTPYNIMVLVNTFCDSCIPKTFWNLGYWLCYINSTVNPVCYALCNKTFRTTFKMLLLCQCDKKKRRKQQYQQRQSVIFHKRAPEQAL

## CC(C)OC(=O)CCC/C=C\C[C@@H]1[C@@H](CC[C@@H](O)CCc2ccccc2)[C@H](O)C[C@@H]1O [Latanoprost]
  yeast-expressed receptor NanoLuc screen at 10 uM, |Z-score| > 3: Latanoprost for mitigating increased intraoccular pressure may be partially explained by the observed interaction with CHRM3
